In patent publication US6984649B1, “Pyridine derivatives” (Bayer Aktiengesellschaft, priority 2000, dated 2006) one finds IC50 data, which are given here for 50 compounds.

The structures appear in SMILES notation.

By IC50 is commonly meant the concentration needed to halve the response being measured.

For this test, the system named is A549 human lung epithelium cell line. Put plainly: RANTES production in response to TNF-α from A549 cells. The test is classed as cell-based. As to conditions: Homo sapiens, A549, A549 cells, 100 ng/ml TNF-α, read-out: Cellular activity grade (A549) (Cellular IC50). A digest of the protocol:
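Cells (4×10^4/well) in D-MEM/10% FCS preincubated 1 h at 37 °C with compound in 1% DMSO, then stimulated with 100 ng/ml TNF-α for 24 h. Supernatant RANTES quantified by Eu-labelled sandwich immunoassay (time-resolved fluorescence, ex 340/em 615 nm) against recombinant human RANTES standard.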
Consider `O=c1[nH]c2nc(-c3c(O)cccc3OCC3CC3)cc(C3CCCNC3)c2cc1[N+](=O)[O-]` (centres unmarked) [Example 25-05], for which the IC50 lay within 1000 to 10000 nM.

As to `N#Cc1cc2c(C3CCCNC3)cc(-c3c(O)cccc3OCC3CC3)nc2[nH]c1=O` (centres unmarked) [Example 25-06], the IC50 was under 1000 nM.

As for `O=c1[nH]c2nc(-c3c(O)cccc3OCC3CC3)cc(C3CCCNC3)c2cc1S(=O)(=O)c1ccccc1` (centres unmarked) [Example 25-07], the IC50 is under 1000 nM.

Turning to `NC(=O)c1cc2c(C3CCCNC3)cc(-c3c(O)cccc3OCC3CC3)nc2[nH]c1=O` (centres unmarked) [Example 25-08], the IC50 is under 1000 nM.

With `CCOC(=O)C1Cc2c(C3CCCNC3)cc(-c3c(O)cccc3OCC3CC3)nc2NC1=O` (centres unmarked) [Example 26-03], the IC50 is under 1000 nM.

For the compound `CCOC(=O)C1Cc2c(C3CCNCC3)cc(-c3c(O)cccc3OCC3CC3)nc2NC1=O` (centres unmarked) [Example 26-04], the IC50 was under 1000 nM.

As for `NC(=O)C1Cc2c(C3CCCNC3)cc(-c3c(O)cccc3OCC3CC3)nc2NC1=O` (centres unmarked) [Example 26-05], the half-inhibitory concentration (IC50) was under 1000 nM.

Consider `CCCOc1cccc(O)c1-c1cc(C2CCCNC2)c2c(n1)NC(=O)C(C(=O)OCC)C2` (centres unmarked) [Example 26-06], for which the IC50 was under 1000 nM.

Take `CCCOc1cccc(O)c1-c1cc(C2CCCNC2)c2c(n1)NC(=O)CC2` (centres unmarked) [Example 27-02]: the IC50 was under 1000 nM.

For `O=C1CCc2c(C3CCCNC3)cc(-c3c(O)cccc3OCC3CC3)nc2N1` (centres unmarked) [Example 27-03, 7-[2-(cyclopropylmethoxy)-6-hydroxyphenyl]-5-(3-piperidinyl)-3,4-dihydro-1,8-naphthyridin-2(1H)-one], the IC50 is under 1000 nM.

Take `O=C1CCc2c(C3CCNCC3)cc(-c3c(O)cccc3OCC3CC3)nc2N1` [Example 27-04]: the half-inhibitory concentration (IC50) is under 1000 nM.

Consider `CCCOc1cccc(O)c1-c1cc(C2CCNCC2)c2c(n1)NC(=O)CC2` [Example 27-05], for which the IC50 was under 1000 nM.

Take `CNC(=O)c1cc2c(C3CCCNC3)cc(-c3c(O)cccc3OCC3CC3)nc2[nH]c1=O` (centres unmarked) [Example 31-03]: the IC50 is under 1000 nM.

Turning to `CN(C)C(=O)c1cc2c(C3CCCNC3)cc(-c3c(O)cccc3OCC3CC3)nc2[nH]c1=O` (centres unmarked) [Example 31-04], the IC50 is 1000 to 10000 nM.

In the case of `O=C(c1cc2c(C3CCCNC3)cc(-c3c(O)cccc3OCC3CC3)nc2[nH]c1=O)N1CCCC1` (centres unmarked) [Example 31-05], the IC50 lay in the range of 1000 to 10000 nM.

Take `O=C(NCc1ccccc1)c1cc2c(C3CCCNC3)cc(-c3c(O)cccc3OCC3CC3)nc2[nH]c1=O` (centres unmarked) [Example 31-06]: the IC50 is under 1000 nM.

For `COCCNC(=O)c1cc2c(C3CCCNC3)cc(-c3c(O)cccc3OCC3CC3)nc2[nH]c1=O` (centres unmarked) [Example 31-07], the IC50 was under 1000 nM.

Regarding `O=C(c1cc2c(C3CCCNC3)cc(-c3c(O)cccc3OCC3CC3)nc2[nH]c1=O)N1CCOCC1` (centres unmarked) [Example 31-08], the IC50 was in the range of 1000 to 10000 nM.

With `O=C(c1cc2c(C3CCCNC3)cc(-c3c(O)cccc3OCC3CC3)nc2[nH]c1=O)N1CCNCC1` (centres unmarked) [Example 31-09], the IC50 is over 10000 nM.

For `CC(C)NC(=O)c1cc2c(C3CCCNC3)cc(-c3c(O)cccc3OCC3CC3)nc2[nH]c1=O` (centres unmarked) [Example 31-10], the IC50 was under 1000 nM.

For `CN(C)CCNC(=O)c1cc2c(C3CCCNC3)cc(-c3c(O)cccc3OCC3CC3)nc2[nH]c1=O` (centres unmarked) [Example 31-11], the IC50 was under 1000 nM.

Regarding `O=C(NC1Cc2ccccc2C1)c1cc2c(C3CCCNC3)cc(-c3c(O)cccc3OCC3CC3)nc2[nH]c1=O` (centres unmarked) [Example 31-12], the IC50 was under 1000 nM.

As to `O=C(NC(c1ccccc1)c1ccccc1)c1cc2c(C3CCCNC3)cc(-c3c(O)cccc3OCC3CC3)nc2[nH]c1=O` (centres unmarked) [Example 31-13], the IC50 is under 1000 nM.

In the case of `C[C@H](NC(=O)c1cc2c(C3CCCNC3)cc(-c3c(O)cccc3OCC3CC3)nc2[nH]c1=O)c1ccccc1` (some centres unmarked) [Example 31-14], the IC50 was under 1000 nM.

For the compound `C[C@@H](NC(=O)c1cc2c(C3CCCNC3)cc(-c3c(O)cccc3OCC3CC3)nc2[nH]c1=O)c1ccccc1` (some centres unmarked) [Example 31-15], the IC50 was under 1000 nM.

Turning to `C[C@H](NC(=O)c1cc2c(C3CCCNC3)cc(-c3c(O)cccc3OCC3CC3)nc2[nH]c1=O)C(=O)O` (some centres unmarked) [Example 31-16], the IC50 was in the range of 1000 to 10000 nM.

As for `O=C(NCCc1ccccc1)c1cc2c(C3CCCNC3)cc(-c3c(O)cccc3OCC3CC3)nc2[nH]c1=O` (centres unmarked) [Example 31-17], the IC50 is 1000 to 10000 nM.

For the compound `O=C(NC1CCCCC1)c1cc2c(C3CCCNC3)cc(-c3c(O)cccc3OCC3CC3)nc2[nH]c1=O` (centres unmarked) [Example 31-18], the IC50 is under 1000 nM.

Take `O=C(NCC1CCCCC1)c1cc2c(C3CCCNC3)cc(-c3c(O)cccc3OCC3CC3)nc2[nH]c1=O` (centres unmarked) [Example 31-19]: the IC50 is over 10000 nM.

With `O=C(NCCO)c1cc2c(C3CCCNC3)cc(-c3c(O)cccc3OCC3CC3)nc2[nH]c1=O` (centres unmarked) [Example 31-20], the IC50 was 1000 to 10000 nM.

Turning to `O=C(NC1CC1)c1cc2c(C3CCCNC3)cc(-c3c(O)cccc3OCC3CC3)nc2[nH]c1=O` (centres unmarked) [Example 31-21], the IC50 was under 1000 nM.

In the case of `O=C(NC1CCC1)c1cc2c(C3CCCNC3)cc(-c3c(O)cccc3OCC3CC3)nc2[nH]c1=O` (centres unmarked) [Example 31-22], the IC50 was under 1000 nM.

Regarding `O=C(NC1CCCC1)c1cc2c(C3CCCNC3)cc(-c3c(O)cccc3OCC3CC3)nc2[nH]c1=O` (centres unmarked) [Example 31-23], the IC50 is under 1000 nM.

As for `O=C(NC1CCCCCC1)c1cc2c(C3CCCNC3)cc(-c3c(O)cccc3OCC3CC3)nc2[nH]c1=O` (centres unmarked) [Example 31-24], the IC50 is under 1000 nM.

As for `CCC(CC)NC(=O)c1cc2c(C3CCCNC3)cc(-c3c(O)cccc3OCC3CC3)nc2[nH]c1=O` (centres unmarked) [Example 31-25], the IC50 is under 1000 nM.

On to `CCCC(CCC)NC(=O)c1cc2c(C3CCCNC3)cc(-c3c(O)cccc3OCC3CC3)nc2[nH]c1=O` (centres unmarked) [Example 31-26], for which the IC50 was under 1000 nM.

With `O=C(NCC(F)(F)F)c1cc2c(C3CCCNC3)cc(-c3c(O)cccc3OCC3CC3)nc2[nH]c1=O` (centres unmarked) [Example 31-27], the IC50 is under 1000 nM.

Consider `N#Cc1c(N2CCCC(C(N)=O)C2)cc(-c2ccccc2O)nc1N` (centres unmarked) [Example 34-06], for which the IC50 was over 10000 nM.

`N#Cc1c(NC2CCNCC2)cc(-c2ccccc2O)nc1N` [Example 34-07]: the half-inhibitory concentration (IC50) is 1000 to 10000 nM.

For the compound `N#Cc1c(N2CCCNCC2)cc(-c2ccccc2O)nc1N` [Example 34-08], the 50% inhibitory concentration (IC50) is 1000 to 10000 nM.

On to `N#Cc1c(N2CCNCC2)cc(-c2ccccc2O)nc1N` [Example 34-09], for which the IC50 lay within 1000 to 10000 nM.

For `N#Cc1c(NCCN)cc(-c2ccccc2O)nc1N` [Example 34-10], the IC50 is under 1000 nM.

Regarding `N#Cc1c(NCCCN)cc(-c2ccccc2O)nc1N` [Example 34-11], the IC50 lay within 1000 to 10000 nM.

For the compound `CNCCNc1cc(-c2ccccc2O)nc(N)c1C#N` [Example 34-12], the IC50 was under 1000 nM.

Take `N#Cc1c(NCCNCc2ccccc2)cc(-c2ccccc2O)nc1N` [Example 34-13]: the IC50 was under 1000 nM.

Consider `N#Cc1c(NCCNCc2ccccc2)cc(-c2c(O)cccc2OCC2CC2)nc1N` [Example 34-15], for which the IC50 was under 1000 nM.

For `N#Cc1c(NCCNC(=O)c2ccccc2)cc(-c2c(O)cccc2OCC2CC2)nc1N` [Example 34-16], the IC50 is under 1000 nM.

On to `N#Cc1c(NCCNS(=O)(=O)c2ccccc2)cc(-c2c(O)cccc2OCC2CC2)nc1N` [Example 34-17], for which the IC50 is over 10000 nM.

For `N#Cc1c(NCCNC(=O)Nc2ccccc2)cc(-c2c(O)cccc2OCC2CC2)nc1N` [Example 34-18], the IC50 is under 1000 nM.

For the compound `CC(=O)NCCNc1cc(-c2c(O)cccc2OCC2CC2)nc(N)c1C#N` [Example 34-19], the IC50 is under 1000 nM.
